How the values were obtained:
[1] = test system: Septoria nodorum; experiment: Test E: Septoria glume blotch, preventive spray on wheat seedlings, visual disease rating; conditions: 100 = 100% disease control; for Test E rating (% disease control): Septoria glume blotch on wheat, preventive spray, rating without asterisk
[2] = test system: Puccinia recondita f. sp. tritici; experiment: Test G: wheat leaf rust, spray after inoculation (curative) on wheat seedlings, visual disease rating; assay type: in vivo; conditions: 100 = 100% disease control; for Test G rating (% disease control): spray after inoculation, rating without asterisk
Excerpt: (§1) A hyphen (-) indicates no test results.

[3] = test system: Septoria tritici; experiment: Test F: wheat leaf blotch, preventive spray on wheat seedlings, visual disease rating; assay type: in vivo; conditions: 100 = 100% disease control; for Test F rating (% disease control): preventive spray, rating without asterisk
Excerpt: as §1

[4] = test system: Alternaria solani; experiment: Test B: tomato early blight, preventive spray on tomato seedlings, visual disease rating; conditions: tomato early blight, 100 = 100% disease control; for Test B rating (% disease control): preventive spray, rating without asterisk
Method: General protocol for preparing test suspensions for Tests A-I: the test compounds were first dissolved in acetone in an amount equal to 3% of the final volume and then suspended at the desired concentration (in ppm) in acetone and purified water (50/50 mix by volume) containing 250 ppm of the surfactant Trem® 014 (polyhydric alcohol esters). The resulting test suspensions were then used in Tests A-I. Each test was conducted in triplicate, and the results were averaged. Spraying a 200 ppm test suspension to the point of run-off on the test plants was the equivalent of a rate of about 800 g/ha. Unless otherwise indicated, the rating values indicate a 200 ppm test suspension was used. (An asterisk “*” next to the rating value indicates a 40 ppm test suspension was used.)
The test suspension was sprayed to the point of run-off on tomato seedlings. The following day the seedlings were inoculated with a spore suspension of Alternaria solani (the causal agent of tomato early blight) and incubated in a saturated atmosphere at 27° C. for 48 h, and then moved to a growth chamber at 20° C. for 5 days, after which time visual disease ratings were made.

[5] = test system: Botrytis cinerea; experiment: Test A: tomato Botrytis, preventive spray on tomato seedlings, visual disease rating; conditions: tomato Botrytis, 100 = 100% disease control; for Test A rating (% disease control): preventive spray, 0 = no control relative to controls, rating without asterisk
[6] = test system: Phytophthora infestans; experiment: whole plant or invertebrate; assay type: in vivo; conditions: tomato late blight, 100 = 100% disease control; for Test C rating (% disease control): preventive spray, rating without asterisk
[7] = test system: Blumeria graminis f. sp. tritici; experiment: Test I: wheat powdery mildew, preventive spray on wheat seedlings, visual disease rating; conditions: wheat powdery mildew, 100 = 100% disease control; for Test I rating (% disease control): preventive spray, rating without asterisk
[8] = test system: Puccinia recondita f. sp. tritici; experiment: Test H: wheat leaf rust, preventive spray on wheat seedlings, visual disease rating; conditions: wheat leaf rust, 100 = 100% disease control; for Test H rating (% disease control): preventive spray, rating without asterisk
[9] = 0 = no disease control relative to the controls

Cc1nn(C)c(Nc2c(Cl)cc(Cl)cc2Cl)c1-c1ccc(F)cc1F [compound 165]
Test E rating (disease control) ([1]; Septoria glume blotch, 0 = no disease control relative to the controls): 0% | Test G rating (disease control) ([2]; sprayed after inoculation, 0 = no disease control): 67% | Test F rating (disease control) [3, 9]: 100% | Test B rating (disease control) [4, 9]: 0% | Test A rating (disease control) [5, 9]: 100% | Test C rating (disease control) [6, 9]: 0% | Test I rating (disease control) [7, 9]: 99% | Test H rating (disease control) ([8]; sprayed the day before inoculation, 0 = no disease control): 99%

Cc1nn(C)c(Nc2c(F)cc(Cl)cc2I)c1-c1ccc(F)cc1F [compound 180]
Test E rating (% disease control) [1]: 99% | Test G rating (% disease control) [2]: 98% | Test F rating (% disease control) [3]: 100% | Test B rating (% disease control) [4]: 100% | Test A rating (% disease control) [5]: 100% | Test C rating (% disease control) [6]: 9% | Test I rating (% disease control) [7]: 100% | Test H rating (% disease control) [8]: 100%

COc1ccc(-c2c(C)nn(C)c2Nc2c(F)cc(Cl)cc2F)c(F)c1 [compound 185]
Test E rating (% disease control) [1]: 60% | Test G rating (% disease control) [2]: 0% | Test F rating (% disease control) [3]: 100% | Test B rating (% disease control) [4]: 99% | Test A rating (% disease control) [5]: 100% | Test C rating (% disease control) [6]: 0% | Test I rating (% disease control) [7]: 100% | Test H rating (% disease control) [8]: 99%

Cc1nn(C)c(Nc2c(F)cc(Cl)cc2Br)c1-c1ccc(F)cc1Cl [compound 186]
Test E rating (% disease control) [1]: 100% | Test G rating (% disease control) [2]: 100% | Test F rating (% disease control) [3]: 100% | Test B rating (% disease control) [4]: 100% | Test A rating (% disease control) [5]: 100% | Test C rating (% disease control) [6]: 0% | Test I rating (% disease control) [7]: 100% | Test H rating (% disease control) [8]: 100%

CCOc1ccc(-c2c(C)nn(C)c2Nc2c(Cl)cc(F)cc2Cl)c(F)c1 [compound 192]
Test E rating (% disease control) [1]: 0% | Test G rating (% disease control) [2]: 0% | Test F rating (% disease control) [3]: 100% | Test B rating (% disease control) [4]: 66% | Test A rating (% disease control) [5]: 33% | Test C rating (% disease control) [6]: 0% | Test I rating (% disease control) [7]: 35% | Test H rating (% disease control) [8]: 65%

CCOc1cc(F)c(-c2c(C)nn(C)c2Nc2c(F)cc(F)cc2Cl)c(F)c1 [compound 196]
Test E rating (% disease control) [1]: 95% | Test G rating (% disease control) [2]: 0% | Test F rating (% disease control) [3]: 100% | Test B rating (% disease control) [4]: 100% | Test A rating (% disease control) [5]: 100% | Test C rating (% disease control) [6]: 0% | Test I rating (% disease control) [7]: 100% | Test H rating (% disease control) [8]: 94%

CCOc1cc(F)c(-c2c(C)nn(C)c2Nc2c(F)cc(Cl)cc2F)c(F)c1 [compound 199]
Test E rating (% disease control) [1]: 69% | Test G rating (% disease control) [2]: 0% | Test F rating (% disease control) [3]: 100% | Test B rating (% disease control) [4]: 100% | Test A rating (% disease control) [5]: 100% | Test C rating (% disease control) [6]: 68% | Test I rating (% disease control) [7]: 99% | Test H rating (% disease control) [8]: 83%

CCOc1cc(F)c(-c2c(C)nn(C)c2Nc2c(Cl)cc(F)cc2Cl)c(F)c1 [compound 200]
Test E rating (% disease control) [1]: 0% | Test G rating (% disease control) [2]: 0% | Test F rating (% disease control) [3]: 100% | Test B rating (% disease control) [4]: 97% | Test A rating (% disease control) [5]: 98% | Test C rating (% disease control) [6]: 31% | Test I rating (% disease control) [7]: 79% | Test H rating (% disease control) [8]: 86%
